Laboratory results taken from patent US20110256121A1, “METHODS AND KITS FOR DIAGNOSING OR MONITORING AUTOIMMUNE AND CHRONIC INFLAMMATORY DISEASES” (THE REGENTS OF THE UNIVERSITY OF MICHIGAN, priority 2008, published 2011).

What was measured:
T cell genes = details: PHA-stimulated T cells, 2-deoxy-5-azaC
CD70 expression = CD70 expression on CD4+ cells of PBMCs cultured with lupus medications; type: cell-based, human; details: 1-100 μM, 24 hours, PBMCs with or without PHA
Description: (§1) Cells and cell culture. Peripheral blood mononuclear cells (PBMCs) were isolated by density-gradient centrifugation. T cells were then isolated by E-rosetting (See, e.g., Golbus et al., Clin Immunol Immunopathol 46, 129 (1988)). […] Where indicated, the cells were cultured in RPMI 1640/10% fetal calf serum (FCS) supplemented with interleukin-2 (IL-2) (See, e.g., Richardson et al., Clin Immunol Immunopathol 55, 368 (1990)), in round-bottomed 5-ml culture tubes (Falcon). Cells were stimulated with 1 μg/ml of PHA (Remel) for 16 hours, then cultured in 24-well plates at a density of 1×10^6 for an additional 72 hours in the presence of 2-deoxy-5-azaC or 5-azaC (Sigma-Aldrich), procainamide (Sigma-Aldrich), hydralazine (Sigma-Aldrich), or the MEK inhibitors U0126 (Promega) or PD98059 (Promega). In other studies, PHA-stimulated PBMCs were cultured in RPMI 1640/10% FCS and treated with indomethacin, chloroquine, hydrocortisone, and 6-mercaptopurine (6-MP) (all from Sigma-Aldrich). TT48E, a cloned, CD4+, tetanus toxoid-reactive human T cell line, was cultured as previously described (Cornacchia et al., J Immunol 140, 2197 (1988); Richardson et al., Arthritis Rheum 35, 647 (1992)).
(§2) Flow cytometric analysis. The following fluorochrome-conjugated monoclonal antibodies were obtained from BD PharMingen (San Diego, Calif.): FITC-conjugated anti-human CD70, CD2, or isotype-matched controls; phycoerythrin (PE)-conjugated anti-CD2, CD4, and CD8; and CyChromeconjugated anti-HLA-DR, CD2, and isotype controls. Staining and multicolor flow cytometric analysis were performed (See, e.g., Hale et al., Cell Immunol 220, 51 (2002)) using saturating concentrations of antibody.

CD70 mRNA = assay: CD70 transcripts by real time RT-PCR in anti-CD3 + anti-CD28 stimulated CD4+ T cells; type: cell-based, human; details: 5 μm 5-azaC, 50 μm Pca, 20 μm Hyd, 40 μm U0126, 25 μm PD98059, 3 days
Description: (§3) In other studies, T cells were isolated by negative selection using magnetic beads and instructions provided by the manufacturer (Pan T cell Isolation Kit, Miltenyi), and the CD4+ or CD8+ subset was similarly isolated by magnetic cell sorting. Jurkat cells (E6-1) were cultured as previously described (See, e.g., Cornacchia et al., J Immunol 140:2197 (1998)). Purified human CD4+ T cells were first stimulated with plate bound anti-CD3 and soluble anti-CD28. Briefly, 24 well plates were coated with 300 μl of anti-CD3 (10 μg/ml in PBS—SouthernBiotech) 18 hours 4° C., washed, then 2×10^6 purified T cells were added to the wells in 2 ml RPMI 1640/10% FCS containing 2 μg/ml anti-CD28 (SouthernBiotech). The plates were incubated 37° C. in a humidified atmosphere containing 5% CO2 for 18-24 hours, then treated with 5 μm 5-azaC (Aldrich), 50 μm Pca (Sigma), 20 μm Hyd (Aldrich), 40 μm UO126 (Promega) or 25 μm PD98059 (Promega), and cultured for 3 additional days as described (See, e.g., Oelke et al., Arthritis Rheum 50:1850 (2004)).

T cell CD70 expression = assay: CD70 expression on PHA-stimulated T cells by flow cytometry; type: cell-based, human; details: for CD70 expression on treated vs untreated PHA-stimulated T cells: unfractionated T cells, 3 days, 1 μM 5-azaC, dose-response for procainamide, PD98059, U0126
Description: as §1, §2
The panel of inhibitors used included 5-azaC, an irreversible DNA methyltransferase inhibitor (See, e.g., Glover and Leyland-Jones, Cancer Treat Rep 71, 959 (1987)) procainamide, a competitive DNA methyltransferase inhibitor (See e.g., Scheinbart et al., J Rheumatol 18, 530 (1991)), and the ERK pathway inhibitors PD98059, U0126, and hydralazine.
Studies were performed examining the effects of the DNA methylation inhibitors on CD70 expression in CD4+ and CD8+ T cell subsets.

CD70 promoter = assay: Bisulfite sequencing of the CD70 promoter in CD4+ T cells; type: cell-based, human; details: for methylation of the 10 CG pairs between −515 and −423 of the CD70 promoter: anti-CD3 and anti-CD28 stimulated CD4+ T cells vs stimulated untreated controls
Description: as §3
Bisulfite sequencing. The putative CD70 promoter was identified using the published CD70 cDNA sequence and Tfsitescan software. Deoxycytosine (dC) and deoxymethylcytosine (d^mC) bases in the gene promoter and 5′ flanking sequences were identified by bisulfite treatment of purified DNA followed by nested PCR amplification of 3 sequential fragments to span the entire region. The primers were designed to avoid CG pairs and to account for the conversion of dC to dU by the bisulfite. EcoRI sites were added to the forward primers, and XbaI to the reverse, to facilitate cloning. The amplified fragments were then cloned into PBS+, and 5 clones sequenced for each fragment. The primers used were: […]
The effect of lupus and DNA methylation inhibitors on a regulatory element in the CD70 promoter was examined. DNA was isolated from the CD4+ T cells of 7 healthy individuals or 6 lupus patients, bisulfite treated, the region from −466-−515, containing 6 CG pairs was amplified by PCR, and 5 fragments sequenced from each individual. The average methylation status of the 6 CG pairs for healthy versus lupus individuals is shown (FIG. 8, NI and Lupus, respectively). CD4+ T cells from 5 individuals were also stimulated with PHA, treated with the irreversible DNA methyltransferase inhibitor 5-azacytidine (5-azaC), and the methylation status of the 6 CG pairs similarly analyzed from the 25 fragments sequenced (FIG. 8, 5-azaC). […] Results are presented as the mean±SEM of the average methylation of the 6 CG pairs, measured from the 10-35 determinations/group.
The effects of the DNA methylation inhibitors on the methylation status of this region were then compared. […] Again, 5 cloned fragments were sequenced from each control, for a total of 35 determinations per CG pair. […] FIG. 14 compares the average methylation for the 10 CG pairs (−515 to −423) in the T cells treated with DNA methylation inhibitors relative to stimulated, untreated controls.

[1] = target: KIR3DL1 on human T cells (human) (UniProt P43629); assay: cell-based or functional assay
Chain of KIR3DL1 on human T cells (human) (P43629 22-444): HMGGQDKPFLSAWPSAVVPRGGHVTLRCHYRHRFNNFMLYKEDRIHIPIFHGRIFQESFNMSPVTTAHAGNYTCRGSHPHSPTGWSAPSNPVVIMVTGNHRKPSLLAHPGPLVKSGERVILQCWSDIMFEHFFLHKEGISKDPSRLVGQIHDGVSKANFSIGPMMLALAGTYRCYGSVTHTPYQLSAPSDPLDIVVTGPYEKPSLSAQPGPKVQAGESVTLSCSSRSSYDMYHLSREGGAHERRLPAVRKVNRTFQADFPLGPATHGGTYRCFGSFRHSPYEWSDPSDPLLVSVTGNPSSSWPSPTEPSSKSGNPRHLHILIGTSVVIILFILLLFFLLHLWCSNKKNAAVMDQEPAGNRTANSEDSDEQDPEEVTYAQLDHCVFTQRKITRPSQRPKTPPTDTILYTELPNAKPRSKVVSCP

## Nc1ncn([C@H]2C[C@H](O)[C@@H](CO)O2)c(=O)n1 [2-deoxy-5-azaC]
T cell genes; 3 days, oligonucleotide arrays, mean±SEM, 2 independent experiments
  CD70 expression increase in treated cells relative to untreated controls: 2.6±0.6 fold
T cell genes; treated vs untreated
  genes decreased ≧2-fold: 12 genes
  genes reproducibly increased ≧2-fold: 118 genes

## Sc1ncnc2nc[nH]c12 [6-MP, 6-mercaptopurine]
CD70 expression
  CD70 expression on stimulated or unstimulated CD4+ cells: No increase in CD70 expression was seen

## COc1cccc(-c2cc(=O)c3ccccc3o2)c1N [PD98059]
CD70 mRNA
  CD70 transcripts relative to β-actin, treated vs untreated: increase CD70 transcripts
T cell CD70 expression; 25 μM PD98059, n=3, P=0.032
  increase of CD70 MFI on CD4+ T cells: 1.63±0.43 fold
T cell CD70 expression
  CD70 expression on CD4+ T cells: increased CD70 expression on CD4+ T cells
  CD70 expression on treated vs untreated PHA-stimulated T cells: increase in CD70 expression with treatment
CD70 promoter
  methylation of the 10 CG pairs between −515 and −423 of the CD70 promoter: appears to demethylate

## CCN(CC)CCCC(C)Nc1ccnc2cc(Cl)ccc12 (stereo not drawn) [chloroquine]
CD70 expression
  CD70 expression on stimulated or unstimulated CD4+ cells: No increase in CD70 expression was seen

## C[C@]12CCC(=O)C=C1CC[C@@H]1[C@@H]2[C@@H](O)C[C@@]2(C)[C@H]1CC[C@]2(O)C(=O)CO [hydrocortisone]
CD70 expression
  CD70 expression on stimulated or unstimulated CD4+ cells: No increase in CD70 expression was seen

## COc1ccc2c(c1)c(CC(=O)O)c(C)n2C(=O)c1ccc(Cl)cc1 [indomethacin]
CD70 expression
  CD70 expression on stimulated or unstimulated CD4+ cells: No increase in CD70 expression was seen

## CCN(CC)CCNC(=O)c1ccc(N)cc1 [procainamide]
CD70 mRNA
  CD70 transcripts relative to β-actin, treated vs untreated: increase CD70 transcripts
T cell CD70 expression
  CD70 expression on CD4+ T cells: increased CD70 expression on CD4+ T cells
  CD70 expression on treated vs untreated PHA-stimulated T cells: increase in the ratio of the mean fluorescence intensity (MFI) of CD70 expression
CD70 promoter; PHA-stimulated CD4+ T cells
  methylation of the CD70 promoter region −466-−515 (6 CG pairs): demethylate this region
CD70 promoter
  methylation of the 10 CG pairs between −515 and −423 of the CD70 promoter: appears to demethylate

## anti-NKB1 (KIR3DL1) antibody (BD PharMingen)
[1]
  % cytotoxicity (51Cr release from autologous monocytes/macrophages) (% cytotoxicity): 37
